The target in one data set is DNA-PK (Homo sapiens (Human), UniProt P78527). The data set is described as follows: DNA-PK assay (biochemical), flashplate 33P-ATP kinase assay. A digest of the protocol: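 Radiometric kinase reaction in streptavidin-coated flashplates, stopped with 200 mM EDTA, then 30 min room-temperature incubation and saline washes.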
Data set [1] has as its target DNA-PK phosphorylation at serine 2056 (Homo sapiens (Human), UniProt P78527). The data set is described as follows: DNA-PK phosphorylation at serine 2056 (cellular), bleomycin-treated HCT116 cells, ELISA. The format is cell-based. Conditions: read-out: IC50 pDNA-PK. The procedure, abridged:
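Chemiluminescent ELISA read-out; phospho-specific signal normalised to total DNA-PKcs. Cells (HCT116) exposed 6 h to test compound plus 10 μM bleomycin to induce double-strand breaks; DMSO control served as blank.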

The target in a further data set is Kv11.1 (hERG) (Homo sapiens (Human), UniProt Q12809). Briefly: Kv11.1 (hERG) ion channel activity (patch clamp assay), HEK293 cells transfected with hERG gene.
Chain of Kv11.1 (hERG) (Q12809 whole entry): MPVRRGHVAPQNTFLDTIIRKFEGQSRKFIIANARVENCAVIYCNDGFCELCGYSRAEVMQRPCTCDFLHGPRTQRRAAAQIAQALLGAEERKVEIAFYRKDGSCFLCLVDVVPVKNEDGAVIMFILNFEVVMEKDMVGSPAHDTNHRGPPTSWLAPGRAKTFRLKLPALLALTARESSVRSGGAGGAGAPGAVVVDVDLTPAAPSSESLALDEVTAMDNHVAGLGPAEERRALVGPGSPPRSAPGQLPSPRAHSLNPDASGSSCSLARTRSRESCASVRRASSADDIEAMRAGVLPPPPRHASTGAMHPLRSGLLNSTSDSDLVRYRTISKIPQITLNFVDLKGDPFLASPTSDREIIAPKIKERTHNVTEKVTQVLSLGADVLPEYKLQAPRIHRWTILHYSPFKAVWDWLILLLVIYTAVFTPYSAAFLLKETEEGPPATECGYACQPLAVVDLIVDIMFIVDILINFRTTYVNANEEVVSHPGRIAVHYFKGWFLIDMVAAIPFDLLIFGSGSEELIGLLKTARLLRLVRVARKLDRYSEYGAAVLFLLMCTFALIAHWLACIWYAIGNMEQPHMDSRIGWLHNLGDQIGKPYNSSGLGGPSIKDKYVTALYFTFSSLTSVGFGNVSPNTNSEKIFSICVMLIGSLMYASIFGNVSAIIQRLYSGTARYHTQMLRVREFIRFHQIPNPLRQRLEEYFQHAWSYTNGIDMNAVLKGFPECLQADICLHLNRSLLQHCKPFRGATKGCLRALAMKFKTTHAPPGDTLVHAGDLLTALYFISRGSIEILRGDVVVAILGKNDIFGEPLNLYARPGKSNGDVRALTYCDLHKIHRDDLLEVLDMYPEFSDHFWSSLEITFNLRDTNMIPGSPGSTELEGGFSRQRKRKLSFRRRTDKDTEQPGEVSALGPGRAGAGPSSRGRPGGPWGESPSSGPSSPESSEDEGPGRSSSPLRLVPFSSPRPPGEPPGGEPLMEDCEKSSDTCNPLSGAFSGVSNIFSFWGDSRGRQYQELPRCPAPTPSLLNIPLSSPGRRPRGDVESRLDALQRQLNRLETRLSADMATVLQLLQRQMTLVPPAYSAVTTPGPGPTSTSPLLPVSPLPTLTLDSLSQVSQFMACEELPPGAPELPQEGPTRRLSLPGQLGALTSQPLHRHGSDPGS
Setting [2] is: cellular DNA-PK phosphorylation at serine 2056, HCT116.
[3] abbreviates: read-out: Ki [Kv1.11 hERG], hERG patch clamp assay (cells without asterisk).
Where [4] appears, read: Ki [Kv1.11 hERG], hERG patch clamp assay (cells without asterisk).
[5] abbreviates: cellular, HCT116 cells, 10 μM bleomycin, six hours.
The mark [6] stands for this setting: Ki [Kv1.11 hERG], patch clamp, HEK293 transfected with hERG gene.

Read-outs that look alike come from different tables or passages of the source.

On to `NC(=O)c1cncc(C(C(N)=O)c2ccc(F)c(-c3ncnc4cc(N5CCOCC5)ccc34)c2)n1` (stereo not drawn) [Example 292, 6-{Carbamoyl-[4-fluoro-3-(7-morpholin-4-yl-quinazolin-4-yl)-phenyl]methyl}-pyrazine-2-carboxylic acid amide], for which the IC50 lay in the range of 0.007 to 0.03 µM against DNA-PK (biochemical DNA-PK assay) and 10 to 30 µM in data set [1] (setting [2]). Also, the Ki at Kv11.1 (hERG) (setting [3]) is > 25 µM.
For `Cn1c(C(O)c2cc(-c3ncnc4cc(N5CCOCC5)ccc34)c(F)cc2Cl)cccc1=O` (stereo not drawn) [Example 383, 6-{[2-Chloro-4-fluoro-5-(7-morpholin-4-yl-quinazolin-4-yl)-phenyl]hydroxy-methyl}-1-methyl-1H-pyridin-2-one], in that order: < 0.003 µM, < 0.5 µM and > 25 µM.
`COc1nccnc1[C@@H](O)c1cc(-c2ncnc3cc(N4CCOCC4)ccc23)ccc1Cl` [Example 411, (S)-[2-Chloro-5-(7-morpholin-4-yl-quinazolin-4-yl)-phenyl]-(3-methoxy-pyrazin-2-yl)-methanol]: the IC50 at DNA-PK (biochemical DNA-PK assay) lay within 0.003 to 0.007 µM; in data set [1] (setting [2]), 0.5 to 5 µM. Besides, the Ki at Kv11.1 (hERG) (setting [4]) lay within 10 to 15 µM.
For `OC(c1ccc(F)c(-c2ncnc3cc(N4CCOCC4)ccc23)c1)c1nncc2ccoc12` (stereo not drawn) [Example 335, [4-Fluoro-3-(7-morpholin-4-yl-quinazolin-4-yl)-phenyl]furo[2,3-d}-pyridazin-7-yl-methanol], the IC50 is < 0.003 µM against DNA-PK (biochemical DNA-PK assay) and < 0.5 µM in data set [1] (setting [2]). Besides, on Kv11.1 (hERG) (setting [3]), the Ki was > 25 µM.
With `COc1ccnnc1C(O)c1ccc(F)c(-c2ncnc3cc(N4CCOCC4)ccc23)c1` (stereo not drawn) [Example 18, [4-Fluoro-3-(7-morpholin-4-yl-quinazolin-4-yl)phenyl]-(4-methoxy-pyridazin-3-yl)methanol], the IC50 on DNA-PK (enzymatic, 5 μM ATP) was < 0.003 µM; in data set [1] (setting [5]), 0.5 to 5 µM. This compound also yielded a Ki at Kv11.1 (hERG) (setting [6]) of 15 to 25 µM.
On to `[2H]C1([2H])OC([2H])([2H])C([2H])([2H])N(c2ccc3c(-c4cc([C@H](O)c5nccnc5C)ccc4F)ncnc3c2)C1([2H])[2H]` [Example 243, (S)-[4-Fluoro-3-[7-(2,2,3,3,5,5,6,6-octadeuteriomorpholin-4-yl)quinazolin-4-yl]phenyl]-(3-methylpyrazin-2-yl)methanol], for which the figures for the IC50 (on DNA-PK (biochemical DNA-PK assay); in data set [1] (setting [2])) were 0.007 to 0.03 µM and 0.5 to 5 µM, respectively. At Kv11.1 (hERG) (setting [3]), the Ki lay in the range of 15 to 25 µM.
On the same counts, the results for `OC(c1ccc(F)c(-c2ncnc3cc(N4CCOCC4)ccc23)c1)c1nnc2ccccn12` (stereo not drawn) [Example 344, [4-Fluoro-3-(7-morpholin-4-yl-quinazolin-4-yl)-phenyl]-[1,2,4]-triazolo[4,3-a]pyridin-3-ylmethanol] are < 0.003 µM, 5 to 10 µM and > 25 µM.
Regarding `COc1nnc(C(O)c2cc(-c3ncnc4cc(N5CCOCC5)ccc34)c(F)cc2Cl)cc1C` (stereo not drawn) [Example 110, [2-Chloro-4-fluoro-5-(7-morpholin-4-yl-quinazolin-4-yl)-phenyl]-(6-methoxy-5-methylpyridazin-3-yl)methanol], the IC50 lay within 0.007 to 0.03 µM against DNA-PK (enzymatic, 5 μM ATP) and 0.5 to 5 µM in data set [1] (setting [5]). Also, the inhibitory constant (Ki) at Kv11.1 (hERG) (setting [6]) fell in the range of 10 to 15 µM.
For the compound `COc1nnc(C(O)c2cc(-c3ncnc4cc(N5CCOCC5)ccc34)c(F)cc2Cl)c2ccncc12` (stereo not drawn) [Example 40, [2-Chloro-4-fluoro-5-(7-morpholin-4-yl-quinazolin-4-yl)phenyl]-(4-methoxypyrido-[3,4-d}pyridazin-1-yl)-methanol], the IC50 against DNA-PK (enzymatic, 5 μM ATP) was in the range of 0.007 to 0.03 µM; in data set [1] (setting [5]), 0.5 to 5 µM. Further, the Ki at Kv11.1 (hERG) (setting [6]) fell in the range of 10 to 15 µM.
With `COc1nccnc1C(C(N)=O)c1cc(-c2ncnc3cc(N4CCOCC4)ccc23)c(F)cc1F` (stereo not drawn) [Example 319, 2-[2,4-Difluoro-5-(7-morpholin-4-ylquinazolin-4-yl)phenyl]-2-(3-methoxypyrazin-2-yl)acetamide], the values for the IC50 (against DNA-PK (biochemical DNA-PK assay); in data set [1] (setting [2])) were 0.007 to 0.03 µM and 5 to 10 µM, respectively. On Kv11.1 (hERG) (setting [3]), the Ki is > 25 µM.
As for `OC(c1cc(-c2ncnc3cc(N4CCOCC4)ccc23)c(F)cc1F)c1nccnc1OC(F)F` (stereo not drawn) [Example 450, (3-Difluoromethoxy-pyrazin-2-yl)-[2,4-difluoro-5-(7-morpholin-4-yl-quinazolin-4-yl)-phenyl]methanol], the values for the IC50 (against DNA-PK (biochemical DNA-PK assay); in data set [1] (setting [2])) were 0.007 to 0.03 µM and 5 to 10 µM, respectively. At Kv11.1 (hERG) (setting [4]), this compound came in with a Ki of 15 to 25 µM.
As to `OC(c1ccn2nccc2n1)c1cc(-c2ncnc3cc(N4CCOCC4)ccc23)c(F)cc1Cl` (stereo not drawn) [Example 39, [2-Chloro-4-fluoro-5-(7-morpholin-4-yl-quinazolin-4-yl)phenyl]-pyrazolo[1,5-a]-pyrimidin-5-ylmethanol], the IC50 at DNA-PK (enzymatic, 5 μM ATP) is 0.003 to 0.007 µM; in data set [1] (setting [5]), < 0.5 µM. The compound also gave a Ki on Kv11.1 (hERG) (setting [6]) of 15 to 25 µM.
In the case of `O=C1CCCN1c1nccnc1C(O)c1ccc(F)c(-c2ncnc3cc(N4CCOCC4)ccc23)c1` (stereo not drawn) [Example 425, 1-(3-{[4-Fluoro-3-(7-morpholin-4-yl-quinazolin-4-yl)-phenyl]hydroxy-methyl}pyrazin-2-yl)-pyrrolidin-2-one], the figures for the IC50 (at DNA-PK (biochemical DNA-PK assay); in data set [1] (setting [2])) were > 0.03 µM and 10 to 30 µM, respectively. Also, the Ki on Kv11.1 (hERG) (setting [3]) was > 25 µM.
`COc1nccnc1C(C(N)=O)c1cc(-c2ncnc3cc(N4CCOCC4)ccc23)c(F)cc1Cl` (stereo not drawn) [Example 320, 2-[2-Chloro-4-fluoro-5-(7-morpholin-4-yl-quinazolin-4-yl)-phenyl]-2-(3-methoxy-pyrazin-2-yl)acetamide]: the half-maximal inhibitory concentration (IC50) at DNA-PK (biochemical DNA-PK assay) was 0.007 to 0.03 µM; in data set [1] (setting [2]), 0.5 to 5 µM. In addition, at Kv11.1 (hERG) (setting [3]), the Ki is > 25 µM.
As to `Cn1c(C(C(N)=O)c2cc(-c3ncnc4cc(N5CCOCC5)ccc34)c(F)cc2Cl)cccc1=O` (stereo not drawn) [Example 312, 2-[2-Chloro-4-fluoro-5-(7-morpholin-4-yl-quinazolin-4-yl)-phenyl]-2-(1-methyl-6-oxo-1,6-dihydro-pyridin-2-yl)-acetamide], the IC50 was > 0.03 µM on DNA-PK (biochemical DNA-PK assay) and 10 to 30 µM in data set [1] (setting [2]). In addition, at Kv11.1 (hERG) (setting [3]), the Ki was > 25 µM.
For `COc1nccnc1C(O)c1cc(-c2ncnc3cc(N4CCOCC4)ccc23)ccc1Cl` (stereo not drawn) [Example 422, [2-Chloro-5-(7-morpholin-4-yl-quinazolin-4-yl)-phenyl]-(3-methoxy-pyrazin-2-yl)-methanol], in that order: 0.003 to 0.007 µM, 0.5 to 5 µM and 10 to 15 µM.
Take `CCn1c(C(O)c2ccc(F)c(-c3ncnc4cc(N5CCOCC5)ccc34)c2)cccc1=O` (stereo not drawn) [Example 398, 1-Ethyl-6-{[4-f1uoro-3-(7-morpholin-4-yl-quinazolin-4-yl)-phenyl]hydroxy-methyl}-1H-pyridin-2-one]: the IC50 at DNA-PK (biochemical DNA-PK assay) lay within 0.003 to 0.007 µM; in data set [1] (setting [2]), 0.5 to 5 µM. On Kv11.1 (hERG) (setting [3]), the Ki was > 25 µM.
Consider `Cc1cncnc1C(C(N)=O)c1cc(-c2ncnc3cc(N4CCOCC4)ccc23)ccc1Cl` (stereo not drawn) [Example 377, 2-[2-Chloro-5-(7-morpholin-4-yl-quinazolin-4-yl)-phenyl]-2-(5-methyl-pyrimidin-4-yl)-acetamide], for which the IC50 was in the range of 0.003 to 0.007 µM against DNA-PK (biochemical DNA-PK assay) and 0.5 to 5 µM in data set [1] (setting [2]). This compound also yielded a Ki at Kv11.1 (hERG) (setting [4]) of 15 to 25 µM.
On the same counts, the results for `OC(c1ccc(F)c(-c2ncnc3cc(N4CCOCC4)ccc23)c1)c1nncc2sccc12` (stereo not drawn) [Example 333, [4-Fluoro-3-(7-morpholin-4-yl-quinazolin-4-yl)-phenyl]thieno[2,3-d}-pyridazin-4-yl-methanol] are < 0.003 µM, < 0.5 µM and 15 to 25 µM.
Consider `NC(=O)C(c1ccc(F)c(-c2ncnc3cc(N4CCOCC4)ccc23)c1)c1ncccc1Cl` (stereo not drawn) [Example 313, 2-(3-Chloro-pyridin-2-yl)-2-[4-fluoro-3-(7-morpholin-4-yl-quinazolin-4-yl)-phenyl]acetamide], for which the IC50 was in the range of 0.007 to 0.03 µM against DNA-PK (biochemical DNA-PK assay) and 5 to 10 µM in data set [1] (setting [2]). The compound further gave a Ki on Kv11.1 (hERG) (setting [4]) of 15 to 25 µM.
For `COc1cncnc1C(O)c1cc(-c2ncnc3cc(N4CCOCC4)ccc23)ccc1Cl` (stereo not drawn) [Example 413, [2-Chloro-5-(7-morpholin-4-yl-quinazolin-4-yl}-phenyl]-(5-methoxy-pyrimidin-4-yl)-methanol], in that order: 0.003 to 0.007 µM, 0.5 to 5 µM and 15 to 25 µM.
`Cn1c(C(O)c2cc(-c3ncnc4cc(N5CCOCC5)ccc34)c(F)cc2F)cccc1=O` (stereo not drawn) [Example 381, 6-{[2,4-Difluoro-5-(7-morpholin-4-yl-quinazolin-4-yl)-phenyl]hydroxy-methyl}-1-methyl-1H-pyridin-2-one]: the IC50 is < 0.003 µM against DNA-PK (biochemical DNA-PK assay) and 0.5 to 5 µM in data set [1] (setting [2]). At Kv11.1 (hERG) (setting [3]), the Ki is > 25 µM.
For `Cc1cc(C(O)c2cc(-c3ncnc4cc(N5CCOCC5)ccc34)c(F)cc2Cl)n(C)c(=O)c1` (stereo not drawn) [Example 339, 6-{[2-Chloro-4-fluoro-5-(7-morpholin-4-yl-quinazolin-4-yl)-phenyl]hydroxy-methyl}-1,4-dimethyl-1H-pyridin-2-one], in that order: 0.007 to 0.03 µM, 0.5 to 5 µM and > 25 µM.
On the same counts, the results for `COc1nccnc1C(O)c1cc(-c2ncnc3cc(N4CCOCC4)ccc23)ccc1Cl` (stereo not drawn) [Example 410, [2-Chloro-5-(7-morpholin-4-yl-quinazolin-4-yl)-phenyl]-(3-methoxy-pyrazin-2-yl)-methanol] are < 0.003 µM, < 0.5 µM and < 10 µM.
On the same counts, the results for `COc1nccnc1C(C(N)=O)c1ccc(F)c(-c2ncnc3cc(N4CCOCC4)ccc23)c1` (stereo not drawn) [Example 305, 2-[4-Fluoro-3-(7-morpholin-4-yl-quinazolin-4-yl)-phenyl]-2-(3-methoxy-pyrazin-2-yl)acetamide] are 0.007 to 0.03 µM, 5 to 10 µM and > 25 µM.

For the origin of these results see patent US9732094B2, “Arylquinazolines” (Merck Patent GmbH, priority 2013, dated 2017).
